In US11028058B2, “Heterocyclic compounds as adenosine antagonists” (NUVATION BIO INC., priority 2017, dated 2021):
pIC50: −log10 of the molar value.

Key:
[1] = biological target: adenosine A2B receptor (HEK-293-A2B cell membranes) (Homo sapiens (Human), UniProt P29275); experiment: Adenosine A2B radioligand binding competition assay (3H-DPCPX)
Description: (§1) Binding of selected compounds to the adenosine A2A, A1, A2B, and A3 receptors was tested using a binding competition assay.
(§2) The general protocol for the radioligand binding competition assay was as follows. Competition binding was performed in duplicate in the wells of a 96 well plate (Master Block, Greiner, 786201) containing binding buffer (optimized for each receptor), membrane extracts (amount of protein/well optimized for each receptor), radiotracer (final concentration optimized for each receptor), and test compound. Nonspecific binding was determined by co-incubation with 200-fold excess of cold competitor. The samples were incubated in a final volume of 0.1 mL at 25° C. for 60 minutes and then filtered over filter plates. Filters were washed six times with 0.5 mL of ice-cold washing buffer (optimized for each receptor) and 50 μL of Microscint 20 (Packard) were added on each filter. The filter plates were sealed, incubated 15 min on an orbital shaker and scintillation counted with a TopCount for 30 sec/filter. […]

[2] = biological target: adenosine A1 receptor (CHO-K1-A1 cell membranes) (Homo sapiens (Human), UniProt P30542); experiment: Adenosine A1 radioligand binding competition assay (3H-DPCPX)
Description: as §1, §2

adenosine A2A receptor = adenosine A2A receptor (Homo sapiens (Human), UniProt P29274); experiment: A2A adenosine receptor radioligand binding competition assay (filter plates)
Description: as §1
(§3) The general protocol for the radioligand binding competition assay was as follows. Competition binding was performed in duplicate in the wells of a 96 well plate (Master Block, Greiner, 786201) containing binding buffer (optimized for each receptor), membrane extracts (amount of protein/well optimized for each receptor), radiotracer (final concentration optimized for each receptor), and test compound. Nonspecific binding was determined by co-incubation with 200-fold excess of cold competitor. The samples were incubated in a final volume of 0.1 mL at 25° C. for 60 minutes and then filtered over filter plates. Filters were washed six times with 0.5 mL of ice-cold washing buffer (optimized for each receptor) and 50 μL of Microscint 20 (Packard) were added on each filter. The filter plates were sealed, incubated 15 min on an orbital shaker and scintillation counted with a TopCount for 30 sec/filter.
For the A2A adenosine receptor radioligand binding assay, the following modifications were made to the general protocol. GF/C filters (Perkin Elmer, 6005174), presoaked in 0.01% Brij for 2 h at room temperature were used. Filters were washed six times with 0.5 mL of ice-cold washing buffer (50 mM Tris pH 7.4) and 50 μL of Microscint 20 (Packard) was added in each well. The plates were then incubated for 15 min on an orbital shaker and then counted with a TopCount™ for 1 min/well. Another radioligand binding assay was used to evaluate the binding affinity for the adenosine A2A receptor assay was performed in duplicate in the wells of a 384 plate. Assay buffer contained DPBS 500 mM, MgCl2 0.1 mM, and 1% DMSO. Membrane-bead suspension was prepared by mixing 25.98 μL of human adenosine A2A membrane preparation (Perkin Elmer, RBHA2AM400UA) at 33.4 μg/mL, 28 μL of ADA at 20 μg/mL, and 932 μL of SPA beads at 3.33 mg/mL) and incubated the mixture for 20 min at room temperature. Mixed 20 μL of radiotracer (^3H-SCH 58261) at 15 nM to each well containing test articles at various concentrations and centrifuge the plate at 1000 rpm for 1 minute. Added 30 μL of the membraine-bead suspension to each well. Sealed the plates and incubated for 1 hr at room temperature with vigorous mixing on a plate mixer. Plates were read on Microbeta^2 (Perkin Elmer, 2450-0010).

[3] = biological target: HEK-293 cells expressing human recombinant adenosine A2A receptor (Homo sapiens (Human), UniProt P29274); experiment: cAMP assay, Assay 1 (HTRF kit); format: cell-based; conditions: for inhibition at 0.1 µM: HEK293, 100 nM, read-out: A2a cAMP (% inh @ 100 nM)
Description: The functional activity of compounds was tested using one of the two assays to detect the present of cAMP. Activation of G-protein coupled receptors (such as A2A) results in activation of adenylcyclase which converts ATP into cAMP which is used as a downstream signaling molecule. Therefore, molecules which act as GPCR (or specifically A2A receptor) antagonists cause a decrease in intracellular cAMP concentration.
Both assays used HEK-293 cells expressing human recombinant adenosine A2A receptor were grown prior to the test in media without antibiotic.
12 μL of cells were mixed with 6 μL of the test compound at increasing concentrations and then incubated for 10 min. Thereafter 6 μL of the reference agonist was added at a final concentration corresponding to the historical EC80. The plates were then incubated for 30 min at room temperature. After addition of the lysis buffer and 1 hour incubation, cAMP concentrations were estimated, according to the manufacturer specification, with the HTRF® kit.

[4] = biological target: adenosine A3 receptor (CHO-K1-A3 cell membranes) (Homo sapiens (Human), UniProt P0DMS8); experiment: Adenosine A3 radioligand binding competition assay (125I-AB-MECA)
Description: as §1, §3
For the adenosine A3 radioligand binding competition assay, the following reagents were used:
CHO-K1-A3 cell membranes, 1.5 μg/well; a binding buffer comprising HEPES 25 mM pH 7.4, MgCl2 5 mM, CaCl2 1 mM, 0.5% BSA; a wash buffer comprising HEPES 25 mM pH 7.4, MgCl2 5 mM, CaCl2 1 mM; a Unifilter GF/C—treated for 2 h with 0.5% BS; and 0.4 nM of ^125I-AB-MECA as the tracer.

[5] = biological target: recombinant human A2A receptor (Homo sapiens (Human), UniProt P29274); experiment: GTPγ35S scintillation proximity assay for A2A receptor; format: biochemical; conditions: read-out: A2A γGTP assay (% Inh Avg) @ 100 nM
Description: For antagonist testing, membranes extracts were prepared from HEK-293 cells expressing recombinant human A2A receptor, were mixed with GDP (volume:volume) and were incubated in assay buffer comprising 20 mM HEPES pH 7.4; 100 mM NaCl, 10 μg/mL saponin, 5 mM MgCl2 for at least 15 min on ice. In parallel, GTPγ[^35S] was mixed with the beads (volume:volume) just before starting the reaction. The following reagents were successively added in the wells of an Optiplate (Perkin Elmer): 25 μL of test compound or reference ligand, 25 μL of the membranes: GDP mix, 25 μL of reference agonist at historical EC80 and 25 μL of GTPγ[^35S] (PerkinElmer NEG030X), diluted in assay buffer to give 0.1 nM. The plate was incubated at room temperature for 1 hour. Then, 20 μL of IGEPAL was added for 30 minutes at room temperature. Following this incubation, 20 μL of beads (PVT-anti rabbit (PerkinElmer, RPNQ0016)), diluted in assay buffer at 50 mg/mL (0.5 mg/10 μL) and 20 μL of an Anti-GαS/olf antibody were added for a final incubation of 3 hours at room temperature. Then, the plates were centrifuged for 10 min at 2000 rpm, incubated at room temperature for 1 hour and counted for 1 min/well with a PerkinElmer TopCount reader.

adenosine A2A receptor, sequence (P29274 whole entry): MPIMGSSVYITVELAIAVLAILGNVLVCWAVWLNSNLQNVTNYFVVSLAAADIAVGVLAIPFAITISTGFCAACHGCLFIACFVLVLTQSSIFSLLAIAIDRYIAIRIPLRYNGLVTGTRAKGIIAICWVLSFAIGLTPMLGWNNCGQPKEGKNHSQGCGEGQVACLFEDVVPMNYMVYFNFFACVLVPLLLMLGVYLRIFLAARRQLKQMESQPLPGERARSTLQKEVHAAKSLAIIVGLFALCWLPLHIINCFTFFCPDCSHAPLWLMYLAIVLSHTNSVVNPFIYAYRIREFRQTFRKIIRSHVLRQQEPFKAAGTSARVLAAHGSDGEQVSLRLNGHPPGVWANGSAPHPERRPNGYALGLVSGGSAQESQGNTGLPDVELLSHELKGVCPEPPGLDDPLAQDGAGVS
HEK-293 cells expressing human recombinant adenosine A2A receptor, sequence (P29274 whole entry): as above
adenosine A3 receptor (CHO-K1-A3 cell membranes), sequence (P0DMS8 whole entry): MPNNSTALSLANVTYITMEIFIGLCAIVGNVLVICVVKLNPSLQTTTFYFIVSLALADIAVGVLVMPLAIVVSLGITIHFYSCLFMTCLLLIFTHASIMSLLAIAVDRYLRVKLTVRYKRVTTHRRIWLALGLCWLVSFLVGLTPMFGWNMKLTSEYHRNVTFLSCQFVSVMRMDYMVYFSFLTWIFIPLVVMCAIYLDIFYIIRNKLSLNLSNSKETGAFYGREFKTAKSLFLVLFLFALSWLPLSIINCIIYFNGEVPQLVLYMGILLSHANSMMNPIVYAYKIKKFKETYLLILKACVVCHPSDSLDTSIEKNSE
adenosine A2B receptor (HEK-293-A2B cell membranes), sequence (P29275 whole entry): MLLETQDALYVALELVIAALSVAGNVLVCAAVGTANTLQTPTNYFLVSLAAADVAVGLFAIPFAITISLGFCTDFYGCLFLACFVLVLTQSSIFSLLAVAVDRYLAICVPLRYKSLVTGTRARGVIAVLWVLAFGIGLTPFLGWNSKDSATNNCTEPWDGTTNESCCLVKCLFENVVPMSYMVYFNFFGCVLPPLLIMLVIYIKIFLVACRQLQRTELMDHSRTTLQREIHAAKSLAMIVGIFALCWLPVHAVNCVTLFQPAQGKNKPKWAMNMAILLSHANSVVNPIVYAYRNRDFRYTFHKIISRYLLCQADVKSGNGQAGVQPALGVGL
adenosine A1 receptor (CHO-K1-A1 cell membranes), sequence (P30542 whole entry): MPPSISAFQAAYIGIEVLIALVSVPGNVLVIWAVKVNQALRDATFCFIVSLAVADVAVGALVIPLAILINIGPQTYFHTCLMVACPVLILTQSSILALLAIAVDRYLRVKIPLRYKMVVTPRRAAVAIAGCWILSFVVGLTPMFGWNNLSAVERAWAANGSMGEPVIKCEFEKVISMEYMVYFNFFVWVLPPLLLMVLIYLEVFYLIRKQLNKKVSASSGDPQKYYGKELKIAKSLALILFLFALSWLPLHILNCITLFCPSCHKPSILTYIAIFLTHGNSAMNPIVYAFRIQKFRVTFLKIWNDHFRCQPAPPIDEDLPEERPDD
recombinant human A2A receptor, sequence (P29274 whole entry): as the sequence (P29274 whole entry) above

| Structure (SMILES) | A2A radioligand binding competition assay % residual binding @ 100 nM (adenosine A2A receptor) | A2A radioligand binding competition assay % residual binding @ 1000 nM (adenosine A2A receptor) | inhibition at 0.1 µM [3] | A2A radioligand binding competition assay % residual binding @ 3000 nM (adenosine A2A receptor) | also measured |
| --- | --- | --- | --- | --- | --- |
| Nc1cnc(-c2ccc(O)c(Cl)c2)c(-c2ccccc2)n1 [Compound 1.1, 4-(5-amino-3-phenylpyrazin-2-yl)-2-chlorophenol] | 30% | 12% | 97% |  | Radioligand binding competition assay % residual binding @ 300 nM (A2B) [1]: −9%; Radioligand binding competition assay % residual binding @ 300 nM (A1) [2]: −3%; pIC50 (adenosine A2A receptor; Table B1-1): 7.24; pIC50 [3]: 8.22; Radioligand binding competition assay % residual binding @ 300 nM (A3) [4]: 96%; inhibition at 0.1 µM [5]: 82% |
| Nc1cnc(-c2cc(Cl)c3[nH]cnc3c2)c(-c2ccccc2)n1 [Compound No. 1.13, 5-(7-chloro-1H-benzo[d]imidazol-5-yl)-6-phenylpyrazin-2-amine] | 83% | 17% | 51% | 18% | A2A radioligand binding competition assay % residual binding @ 300 nM (adenosine A2A receptor): 69% |
| Nc1nc(-c2ccccc2)c(-c2ccc3ncccc3c2)nc1Br [Compound No. 1.14, 3-bromo-6-phenyl-5-(quinolin-6-yl)pyrazin-2-amine] | 76% | 29% | 100% | 12% | A2A radioligand binding competition assay % residual binding @ 300 nM (adenosine A2A receptor): 48% |
| Nc1cnc(-c2ccc3ncccc3c2)c(-c2ccc(F)cc2)n1 [Compound No. 1.15, 6-(4-fluorophenyl)-5-(quinolin-6-yl)pyrazin-2-amine] |  |  | 0% | 104/ND/ND/ND % |  |
| Nc1cnc(-c2ccc3nccnc3c2)c(-c2ccccc2)n1 [Compound No. 1.16, 6-phenyl-5-quinoxalin-6-yl-pyrazin-2-amine] |  |  | 0% | 80/ND/ND/ND % |  |
| Nc1cnc(-c2cc(Cl)c3ncccc3c2)c(-c2ccccc2)n1 [Compound No. 1.17, 5-(8-chloroquinolin-6-yl)-6-phenylpyrazin-2-amine] |  |  | 99% | 8/ND/ND/ND % |  |
| Nc1cnc(-c2ccc3ocnc3c2)c(-c2ccccc2)n1 [Compound No. 1.18, 5-(benzo[d]oxazol-5-yl)-6-phenylpyrazin-2-amine] |  |  | 14% | 100/ND/ND/ND % |  |
| Cc1ccc(-c2nc(N)cnc2-c2ccc3ncccc3c2)o1 [Compound No. 1.20, 6-(5-methylfuran-2-yl)-5-(quinolin-6-yl)pyrazin-2-amine] |  |  | 81% | 3/ND/ND/ND % |  |
| Cc1ccc(-c2nc(N)cnc2-c2cc(Cl)c3ncccc3c2)o1 [Compound No. 1.21, 5-(8-chloroquinolin-6-yl)-6-(5-methylfuran-2-yl)pyrazin-2-amine] |  |  | 100% | 5/ND/ND/ND % |  |
| Nc1cnc(-c2ccc3ncccc3c2)c(-n2cccn2)n1 [Compound No. 1.22, 6-(1H-pyrazol-1-yl)-5-(quinolin-6-yl)pyrazin-2-amine] |  |  | 24% | 39/ND/ND/ND % |  |
